In patent US20250361240A1, “PYRANOPYRIDINE COMPOUND, PROCESS FOR PREPARING THE SAME, PHARMACEUTICAL COMPOSITION AND USE THEREOF” (Zhejiang Yangli Pharmaceutical Technology Co., Ltd., priority 2024, published 2025):

Legend:
[1] = target: human CYP11B2 (Homo sapiens (Human), UniProt P19099); assay: Inhibitory activity against hCYP11B2 in G-402 CYP11B2 high expression stable transformants (aldosterone HTRF); format: cell-based; details: for IC50: G-402 CYP11B2 cells, 0.2 μM 11-deoxycorticosterone, 16 hours, read-out: hCYP11B2 (AS) Abs IC50; for hCYP11B ½ Selectivity Fold: hCYP11B1 IC50 relative to hCYP11B2 IC50; for selectivity (in words): hCYP11B2 versus hCYP11B1, compared with reference Baxdrostat
Method: (§1) 1. Experimental System: G-402 CYP11B2 or CYP11B1 High Expression Stable Transformants
(§2) The above-mentioned high-expression stable transformants were constructed based on human […] cell line G-402. The artificial lentiviruses were introduced into human CYP11B2 (NM_000498.3) and CYP11B1 (NM_000497.4), respectively.
(§3) Maintenance medium: McCoy's 5A (modified, #16600082, GIBCO)+10% FBS (GIBCO)+1 μg/mL puromycin (A1113803, GIBCO).
(§4) Resuscitation and seeding medium: McCoy's 5A (modified, #16600082, GIBCO)+10% FBS (GIBCO).
(§5) Reaction medium: DMEM/F12 (#11320033, GIBCO)+2.5% activated charcoal filtered FBS (S11695, R & D).
(§6) Seeding: Cells were cultured to a suitable state after resuscitation with maintenance medium, and 96-well flat plates were seeded with seeding medium according to 1×10^4/100 μL/well (unified cell volume).
(§7) Changing solution: The supernatant was aspirated and discarded after seeding overnight (>12 hours) and adherence. 100-150 μL/well serum-free medium was added, and after being aspirated. After aspiration, 50 μL/well reaction medium was added for later use.
(§8) Formulation: Compound was diluted with reaction medium containing 0.4 μM substrate (final experimental concentration is 0.2 μM):
CYP11B2 substrate: 11-deoxycorticosterone (11-deoxycorticosterone, S4243, selleckchem). The final reaction concentration was 0.2 μM
(§9) Loading: The above compound dilutions were added to the cell plates at 50 μL/well. The background and control wells were set.
(§10) Treating and sampling: The cell plates were incubated in a cell incubator for 16 hours after loading, and then each cell plate was centrifuged at 450 g for 2 min. 75 μL supernatant was transferred to a collection plate and frozen at −80° C. for future use (or direct detection).
(§11) Detection: Homogeneous time-resolved fluorescence kit (Cisbio HTRF kit, Cat.64ALDPEG, Cat.62CRTPEG) was used to determine the concentration of aldosterone or cortisol in the supernatant.
(§12) Analysis: The absolute IC50 (Abs IC50) for each compound was calculated using a four parameter fit.

[2] = target: human CYP11B1 (Homo sapiens (Human), UniProt P15538); assay: Inhibitory activity against hCYP11B1 in G-402 CYP11B1 high expression stable transformants (cortisol HTRF); format: cell-based; details: G-402 CYP11B1 cells, 0.2 μM 11-deoxycortisol, 16 hours; read-out: hCYP11B1 Abs IC50
Method: as §1, §2, §3, §4, §5, §6, §7, §8
CYP11B1 substrate: 11-deoxycortisol (11-deoxycortisol, S4775, selleckchem). The final reaction concentration was 0.2 μM.
as §9, §10, §11, §12

[3] = system: cortisol levels; assay: Pharmacodynamic test in cynomolgus monkeys with ACTH stimulation: cortisol in plasma; format: in vivo, cynomolgus monkeys (Macaca fascicularis); details: 0.05 mg/kg oral
Text: (§13) Adult cynomolgus monkeys (Macaca fascicularis) with suitable body weight and age were selected. 1 male and 1 female cynomolgus monkeys were used for experiment. The adaptation period was 1 week. On the day of the experiment, monkeys were individually housed in stainless steel mesh cages for testing.
(§14) Oral treatment and ACTH working solution (working solution diluted to the desired concentration in PBS sterile solution by ultrapure water filtration through a 0.22 μm filter using Tetracosactrin (HY-P0060, MCE)) were administered as follows: • T=0, 2 monkeys in each group were orally administered 0.5 mg/kg (compound was suspended in 5% aqueous sodium hydroxymethylcellulose solution as vehicle) in a fixed volume of 2 mL/kg; • T=+1 hour (i.e., 1 hour after administration), 14.5 μg/kg of the aforementioned ACTH working solution was injected intramuscularly.
(§15) Sampling test: Blood samples (collected in EDTA anticoagulant tubes) were collected before oral administration (Pre-dose) and 0.5 h, 1 h, 2 h, 4 h, 6 h and 12 h after administration for cortisol concentration measurement in plasma. The blood was centrifuged at 10000 rpm for 15 minutes at 4° C., followed by separation of the plasma and uniform storage at −80° C. for further analysis using an Roche biochemical analyzer to detect aldosterone and cortisol in plasma, and a portion of the plasma (0.5 h, 1 h, 2 h, 4 h, 6 h, and 12 h after administration, and an additional blood collection after 24 h) was taken simultaneously to determine the pharmacokinetic parameters by LC/MS.
(§16) The above experiment was repeated except that: T=0, two monkeys in each group were orally administered at a dose of 0.05 mg/kg (compound was suspended in 5% aqueous sodium hydroxymethylcellulose as vehicle) in a fixed volume of 2 mL/kg.

[4] = system: aldosterone synthesis; assay: Pharmacodynamic test in cynomolgus monkeys with ACTH stimulation: aldosterone in plasma; format: in vivo, cynomolgus monkeys (Macaca fascicularis); details: 0.05 mg/kg oral
Text: as §13, §14, §15, §16

[5] = Pharmacokinetic test in cynomolgus monkeys (LC/MS); format: in vivo, cynomolgus monkeys (Macaca fascicularis); details: both sexes, cynomolgus monkey, plasma, 0.05 mg/kg, 0.05mpk oral
Text: as §13, §14, §15, §16

Chain of human CYP11B2 (P19099 25-503): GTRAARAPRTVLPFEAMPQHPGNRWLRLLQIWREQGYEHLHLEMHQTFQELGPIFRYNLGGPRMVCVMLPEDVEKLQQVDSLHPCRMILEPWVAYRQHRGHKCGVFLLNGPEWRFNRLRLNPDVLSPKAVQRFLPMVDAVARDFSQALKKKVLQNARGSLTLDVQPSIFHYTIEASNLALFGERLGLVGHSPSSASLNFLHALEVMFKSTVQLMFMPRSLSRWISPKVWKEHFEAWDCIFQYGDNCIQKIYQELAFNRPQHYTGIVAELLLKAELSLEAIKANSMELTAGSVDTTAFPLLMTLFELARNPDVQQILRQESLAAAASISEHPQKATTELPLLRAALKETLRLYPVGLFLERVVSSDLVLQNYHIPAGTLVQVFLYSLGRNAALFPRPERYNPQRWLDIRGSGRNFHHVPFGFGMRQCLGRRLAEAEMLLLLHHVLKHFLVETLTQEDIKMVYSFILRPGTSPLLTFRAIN
Chain of human CYP11B1 (P15538 25-503): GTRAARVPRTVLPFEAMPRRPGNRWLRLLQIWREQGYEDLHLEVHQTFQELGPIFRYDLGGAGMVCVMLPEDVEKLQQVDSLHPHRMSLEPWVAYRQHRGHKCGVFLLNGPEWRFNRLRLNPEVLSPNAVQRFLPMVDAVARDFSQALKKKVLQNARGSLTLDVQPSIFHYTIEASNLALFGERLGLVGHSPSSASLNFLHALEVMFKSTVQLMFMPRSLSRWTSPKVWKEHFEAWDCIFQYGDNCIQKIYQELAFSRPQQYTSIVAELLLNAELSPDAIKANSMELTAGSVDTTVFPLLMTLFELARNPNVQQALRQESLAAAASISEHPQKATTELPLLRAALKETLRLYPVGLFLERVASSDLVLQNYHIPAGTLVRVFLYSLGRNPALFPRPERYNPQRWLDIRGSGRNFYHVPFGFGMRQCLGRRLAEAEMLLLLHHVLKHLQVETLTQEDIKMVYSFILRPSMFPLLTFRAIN

SMILES | IC50 [1] [µM] | hCYP11B ½ Selectivity Fold [1] [Fold] | selectivity (in words) [1] | IC50 [2] [µM] | further results
CN(C)C(=O)N[C@@H]1CCOc2c(-c3cc4c(cc3F)N(C)C(=O)CC4)cncc21 [Example 6, (R)-3-(8-(7-fluoro-1-methyl-2-oxo-1,2,3,4-tetrahydroquinolin-6-yl)-3,4-dihydro-2H-pyran[3,2-c]pyridin-4-yl)-1,1-dimethylurea] | 0.0773 | >129.37 | better selectivity | > 10 | 
[2H][C@@]1(NC(=O)N(C)C)CCOc2c(-c3cc4c(cc3F)N(C)C(=O)CC4)cncc21 [Example 7, (R)-3-(8-(7-Fluoro-1-methyl-2-oxo-1,2,3,4-tetrahydroquinolin-6-yl)-3,4-dihydro-2H-pyran[3,2-c]pyridin-4-yl-4-d)-1,1-dimethylurea] | 0.172 | >58 |  | > 10 | 
[2H][C@@]1(NC(=O)CC)CCOc2c(-c3ccc4c(c3)CCC(=O)N4C)cncc21 [Example 2, (R)-N-(8-(1-methyl-2-oxo-1,2,3,4-tetrahydroquinolin-6-yl)-3,4-dihydro-2H-pyran[3,2-c]pyridin-4-yl-4-D)propanamide] | 0.0371 | 144.47 | better selectivity | 5.36 | Cortisol Concentration in Plasma ([3]; 0.5 h): 1299.9 pg/mL; Cortisol Concentration in Plasma ([3]; 1 h (ACTH at +1 hour)): 1178.3 pg/mL; Cortisol Concentration in Plasma ([3]; 2 h): 1809.0 pg/mL; Cortisol Concentration in Plasma ([3]; 4 h): 872.2 pg/mL; Cortisol Concentration in Plasma ([3]; 6 h): 451.8 pg/mL; Cortisol Concentration in Plasma ([3]; 12 h): 710.2 pg/mL; Cortisol Concentration in Plasma ([3]; Pre-dose): 838.9 pg/mL; effect on aldosterone synthesis (in words) [4]: no potent inhibition of aldosterone synthesis; Aldosterone Concentration in Plasma ([4]; 0.5 h): 1057.1 pg/mL; Aldosterone Concentration in Plasma ([4]; 1 h (ACTH at +1 hour)): 807.59 pg/mL; Aldosterone Concentration in Plasma ([4]; 2 h): 337.76 pg/mL; Aldosterone Concentration in Plasma ([4]; 4 h): 105.97 pg/mL; Aldosterone Concentration in Plasma ([4]; 6 h): 101.15 pg/mL; Aldosterone Concentration in Plasma ([4]; 12 h): 112.02 pg/mL; Aldosterone Concentration in Plasma ([4]; Pre-dose): 432.52 pg/mL; Cmax [5]: 0.0119 µg/mL; Tmax [5]: 2 h; half-life [5]: 9.7 h; AUC(0-t) ([5]; read-out: AUC0-24 h): 0.165 µg·h/mL
CN(C)C(=O)N[C@@H]1CCOc2c(-c3ccc4c(c3)CCC(=O)N4C)cncc21 [Example 3, (R)-1,1-dimethyl-3-(8-(1-methyl-2-oxo-1,2,3,4-tetrahydroquinolin-6-yl)-3,4-dihydro-2H-pyran[3,2-c]pyridin-4-yl)urea] | 0.0611 | 85.95 |  | 5.25 | 
[2H][C@@]1(NC(=O)CC)CCOc2c(-c3cc4c(cc3F)N(C)C(=O)CC4)cncc21 [Example 4, (R)-N-(8-(7-fluoro-1-methyl-2-oxo-1,2,3,4-tetrahydroquinolin-6-yl)-3,4-dihydro-2H-pyran[3,2-c]pyridin-4-yl-4-d)propanamide] | 0.0427 | 112.51 |  | 4.8 | 
[2H][C@@]1(NC(=O)N(C)C)CCOc2c(-c3ccc4c(c3)CCC(=O)N4C)cncc21 [Example 5, (R)-1,1-dimethyl-3-(8-(1-methyl-2-oxo-1,2,3,4-tetrahydroquinolin-6-yl)-3,4-dihydro-2H-pyran[3,2-c]pyridin-4-yl-4-d)urea] | 0.0496 | 68.19 |  | 3.38 | 
